The values below come from patent publication US4716225A, “Radioopaque sugar derivatives and a method of metabolic mapping using the same” (priority 1985, dated 1987).

Entries after “also recorded” stand apart in the source; their conditions may differ. Where two headings read alike, the source gives them in different places.

A short description of data set [1]: Gross toxicology after intravenous (tail vein) injection in mice and rats. In kind it is in vivo. The protocol: (§1) Gross Toxicology. In order to be economical with the product, the gross toxicology of 6-IG was first determined in mice and rats. Enough material was injected in a volume of 0.1 ml into the tail vein to raise the blood concentration to 10^-3, 10^-2, and 10^-1 M, (0.02-2.11 g/kg). As an osmotic control, equimolar amounts of α-D-galactopyranose were injected into age matched animals.
6-IG was injected intravenously into 20 g male mice and equivalent amounts of α-D-galactopyranose were injected into age-matched controls. […] Three days post-injection, the animals were killed by ether inhalation and autopsied.

In data set [2] the test system is blood/brain barrier saturable carrier of glucose. The note with it: cited from earlier work.
A short description of data set [3]: Observation of side effects after intravenous injection in dogs. In kind it is in vivo, Mongrel dogs. Here is the method:
(§2) Mongrel dogs (40-50 lbs) were injected intravenously with a bolus of α-D-galactose sufficient to raise the blood concentration to a level of 10^-2 M. They were then required to walk from the animal facility to the CAT scanner, approximately 10 minutes, where they were anesthetized. Anesthesia was induced with thiamytal (lmg/kg) and the animal was intubated with a cuffed endotrachial tube. Following induction, anesthesia was maintained with a gaseous mixture of Halothane, nitrous oxide and oxygen.
(§3) The time elapsed from injection to the start of the scan was approximately 1 hour. CAT scanning data were recorded on tape and served as a background control. Upon completion of scanning, the dog was recovered from anesthesia and returned to the animal facility, where routine care was resumed.
(§4) This procedure was repeated one day later; however, 6-IG was injected to an initial blood concentration of 10^-2 M. Nine days and 33 days following the injection, repeat scans were performed to ensure that the contrast medium had cleared.

The test system of data set [4] is brain. The note with it: 0.5 mg FDG injection, cited from earlier work.
Data set [5] relates to brain. The data set can be described thus: Feasibility calculation of brain concentration of 6-iodo-D-galactose. Also on record: species or system human. The text has this: It appears feasible to achieve such concentrations in, for example, brain tissue, by administering a sufficient amount of 6-iodo-D-galactose to obtain an initial blood concentration of about 10^-2 M in the patient.
However, it is proposed to use 6-iodo-D-galactose or other such 2-, 5- or 6-substituted hexoses. […] But the uptake of galactose relative to 2-deoxyglucose is 31%. Therefore, it is estimated that the total brain concentration of 6-iodo-D-galactose is approximately 20%×0.31, or 6% of the initial blood concentration. When the initial blood concentration is 10^-2 M, final brain concentration would approximate 6×10^-4 M. To achieve this, it is necessary to inject approximately 15 grams of iodogalactose. [formula]
An adult has a blood volume of approximately 4-5 L, so to achieve the desired concentration of 10^-2 M (moles per liter) of 6-iodo-galactosewhose formula weight is 290 g/mole will require:
wt=(5 liter)(1 X10^-2 mole/liter)(290 g/mole)=14 g.
Thus, the criterion of having a brain concentration within the range of 10^-4 to 10^-3 M is met. Although this concentration is the lower limit of detection, it should not deleteriously affect the clarity of the brain CAT scan. […]

In data set [6] the test system is brain. The experiment in a line: CAT scanning of dog brain after injection of contrast medium. In kind it is in vivo. The protocol:
as §2, §3, §4
The dog's brains were scanned by CAT in sequential slices in 3 mm. increments. […] The arrow indicates the regions where contrast was observed.

Data set [7] can be described thus: Observation of side effects after injection into mice, rats, and dogs. In kind it is in vivo. The note with it: in the concentrations described. The protocol: This is the region associated with limb and tail movement in the dog. […] Thus, the accumulation can be made to be selective.
as §1, §2

`OC[C@H]1O[C@H](O)[C@H](O)[C@@H](O)[C@H]1O` [α-D-galactopyranose, reference compound]: in data set [1] (in vivo, iv), the “gross findings at autopsy” value was “no gross findings” and the “immediate effects of injection on the animals” value was “no apparent immediate effects on the animals”. Moreover, in data set [2], the “uptake relative to 2-deoxyglucose” value is 31%. In addition, in data set [2] (same saturable carrier as glucose), the “crossing of blood/brain barrier” value is on record as “cross the blood/brain barrier by the same saturable carrier as glucose”. Also, in data set [3] (dog, in vivo, iv), the apparent side effects result is listed as “Neither the control nor the iodinated injection medium had any apparent side effects”.

Fluorodeoxyglucose [FDG]: the “brain concentration of FDG” value with brain [4] (after 40 minutes accumulation time) is on record as 25 ng/cc. Further, the “brain concentration as percent of initial blood concentration” value in the data set on brain [4] (human, 40 min) is 20%. In addition, the concentration with brain [4] (read-out: molar brain concentration of FDG, after 40 minutes, brain cell volume 1 L) is 0.138 µM.

Regarding `OC[C@H]1OC(O)C[C@@H](O)[C@@H]1O` (stereo partly drawn) [2-deoxyglucose], the “crossing of blood/brain barrier” value in data set [2] is reported as “cross the blood/brain barrier by the same saturable carrier as glucose”.

Consider `O[C@@H]1[C@@H](O)[C@@H](O)O[C@H](CI)[C@@H]1O` [6-IG, 6-iodo-6-deoxy-α-D-galactopyranose], for which the “estimated total brain concentration as percent of initial blood concentration” value in the data set on brain [5] (calculated as 20%×0.31) is around 6%. Further, in the data set on brain [5] (initial blood concentration 10^-2 M, read-out: estimated final brain concentration), the concentration is around 600 µM. For the same compound, the “contrast accumulation in the cortical area, posterior portion of frontal lobe” value was “accumulated in the cortical area of the posterior portion of the frontal lobe within one hour after injection; also recorded: beginning of accumulation as early as 1 hour post-injection” with brain [6] (1 hour post-injection, initial blood concentration 10^-2 M) and “greater contrast is seen in the same region 9 days post-injection; also recorded: greater contrast in the same cortical regions” with brain [6] (9 days post-injection, initial blood concentration 10^-2 M). In the data set with brain [6] (9 days post-injection (FIG. 3)), the “contrast in pareital region and other areas of the brain” value was “no contrast is seen in the pareital lobe intracellular section shown in FIG. 3, nor in any other areas of the brain that were scanned; also recorded: no contrast medium has accumulated in that section of the brain”. For the same compound, in the data set on brain [6] (33 days post-injection, initial blood concentration 10^-2 M), the “clearance of contrast medium” value is “cleared completely”. The “accumulation and clearance compared to FDG (PET)” value with brain [6] (compared to Fluorodeoxyglucose) is reported as “relatively slower”. Also, the “time of peak concentration” value in the data set on brain [6] (dog brain, between 1 hour and 9 days post-injection) is on record as “some time inbetween”. Besides, the “clearance of the compound” value in the data set on brain [6] (dog brain, present at nine days post injection) is “relatively slow”. Also, the “distribution of accumulation in brain” value in the data set with brain [6] (general statement on accumulation in dog brain) was “accumulates in areas of the brain that are metabolically hyperactive in response to normal stimuli”. Also, the “distribution of accumulation after digitization” value in the data set with brain [6] (slice of FIG. 2C, 9 days post-injection, background subtracted) is given as “generally greatest in the cortical region”. In addition, the “immediate effects of injection on the animals” value in data set [1] (20 g male mice, i.v., max 2.11 g 6-IG/kg or equivalent amount of α-D-galactopyranose) is reported as “no apparent immediate effects on the animals”. The “gross findings at autopsy” value in data set [1] (mice, three days post-injection, i.v., max 2.11 g 6-IG/kg) is given as “no gross findings”. Besides, the obvious side effects entry in data set [7] is listed as “do not produce any obvious side effects”. Moreover, the apparent side effects result in data set [3] (dogs, i.v., initial blood concentration 10^-2 M) was “Neither the control nor the iodinated injection medium had any apparent side effects”.
